These results are taken from ChEMBL document CHEMBL4052601, “Glycybridins A-K, Bioactive Phenolic Compounds from Glycyrrhiza glabra” (J Nat Prod, 2017).

Active and inactive are the calls of the source. No cut-off for these calls is given here.

In one data set the test system is SW480. As to the kind of experiment: Antiproliferative activity against human SW480 cells at 10 uM after 24 hrs by MTS assay relative to control. The data set is classed as functional. The following applies: SW480, 24 h.
The target of data set [1] is T1, Tyrosine-protein phosphatase non-receptor type 1 (Homo sapiens) (UniProt P18031).
T1 sequence (whole entry): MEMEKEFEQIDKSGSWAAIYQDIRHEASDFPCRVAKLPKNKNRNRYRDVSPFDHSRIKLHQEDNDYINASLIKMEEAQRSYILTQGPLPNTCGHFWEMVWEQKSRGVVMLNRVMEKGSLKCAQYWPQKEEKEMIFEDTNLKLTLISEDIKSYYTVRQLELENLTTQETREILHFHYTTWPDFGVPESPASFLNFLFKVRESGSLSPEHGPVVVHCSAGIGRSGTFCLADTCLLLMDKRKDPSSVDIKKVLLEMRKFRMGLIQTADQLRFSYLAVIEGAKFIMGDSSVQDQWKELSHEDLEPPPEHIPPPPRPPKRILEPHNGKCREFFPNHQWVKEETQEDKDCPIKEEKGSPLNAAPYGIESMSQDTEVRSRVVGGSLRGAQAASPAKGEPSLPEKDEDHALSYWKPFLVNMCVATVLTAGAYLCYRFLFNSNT
Particulars: at 10 µM.
Description: Inhibition of recombinant human PTP1B using pNPP as substrate at 10 uM after 30 mins relative to control

For a further data set, the system named is MCF7. As to the kind of experiment: Antiproliferative activity against human MCF7 cells at 10 uM after 24 hrs by MTS assay relative to control. The data set is classed as functional. The following applies: MCF7, 24 h. (Tetrazolium dyes change colour on reduction, which living cells bring about.)
A short description of data set [2]: Inhibition of LPS-induced NF-kappaB (unknown origin) transactivation expressed in human SW480 cells administered 1 hr after LPS stimulation measured after 6 hrs by luciferase reporter gene assay. The data set is classed as cell-based.
Another data set deals with HepG2. Briefly: Antiproliferative activity against human HepG2 cells at 10 uM after 24 hrs by MTS assay relative to control. In kind it is functional. Particulars: HepG2, 24 h.
Data set [3] concerns the target T2, Tyrosinase (Homo sapiens) (UniProt P14679).
T2 sequence (whole entry): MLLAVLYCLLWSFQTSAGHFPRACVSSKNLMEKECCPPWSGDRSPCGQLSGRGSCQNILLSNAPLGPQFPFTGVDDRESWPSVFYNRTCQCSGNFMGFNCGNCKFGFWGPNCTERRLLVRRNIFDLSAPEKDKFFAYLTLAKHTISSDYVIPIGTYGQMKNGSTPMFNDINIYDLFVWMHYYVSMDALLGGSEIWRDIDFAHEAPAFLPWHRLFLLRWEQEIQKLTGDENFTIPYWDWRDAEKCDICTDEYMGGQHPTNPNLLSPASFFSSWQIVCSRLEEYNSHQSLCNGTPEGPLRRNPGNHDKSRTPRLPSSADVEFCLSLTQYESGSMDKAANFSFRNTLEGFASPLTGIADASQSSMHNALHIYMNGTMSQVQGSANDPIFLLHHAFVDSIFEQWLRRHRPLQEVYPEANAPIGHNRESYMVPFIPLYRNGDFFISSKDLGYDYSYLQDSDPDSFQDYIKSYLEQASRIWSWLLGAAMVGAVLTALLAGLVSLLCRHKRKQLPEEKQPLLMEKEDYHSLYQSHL
Particulars: at 10 µM.
Description: Inhibition of tyrosinase (unknown origin) using L-tyrosine as substrate at 10 uM preincubated for 15 mins followed by substrate addition relative to control

The next data set has as its system Homo sapiens. As to the kind of experiment: Inhibition of LPS-induced NF-kappaB (unknown origin) transactivation expressed in human SW480 cells at 10 uM administered 1 hr after LPS stimulation measured after 6 hrs by luciferase reporter gene assay relative to control. In kind it is cell-based.
Data set [4] deals with A549. Briefly: Antiproliferative activity against human A549 cells at 10 uM after 24 hrs by MTS assay relative to control. The data set is classed as functional. Particulars: A549, 24 h.
Data set [5] relates to RAW264.7. Briefly: Antiinflammatory activity against mouse RAW264.7 cells assessed as inhibition of LPS-induced nitric oxide production at 10 uM after 24 hrs by Griess assay relative to control. The data set is classed as functional. Particulars: RAW264.7, 24 h. In general terms: The Griess reaction detects nitrite, a stable product of nitric oxide.
The target of data set [6] is T3, Tyrosinase (Homo sapiens, UniProt P14679).
T3 sequence (P14679 whole entry): T2 sequence (whole entry)
As to the kind of experiment: Inhibition of tyrosinase (unknown origin) using L-tyrosine as substrate preincubated for 5 mins followed by substrate addition.

In data set [7] the target is T3, Tyrosinase. As to the kind of experiment: Inhibition of tyrosinase (unknown origin) using L-tyrosine as substrate preincubated for 15 mins followed by substrate addition.
In data set [8] the target is T4, Tyrosine-protein phosphatase non-receptor type 1 (Homo sapiens, UniProt P18031).
T4 sequence (P18031 whole entry): T1 sequence (whole entry)
Briefly: (§1) Inhibition of recombinant human PTP1B using pNPP as substrate after 30 mins.

Data set [9] has as its target T1, Tyrosine-protein phosphatase non-receptor type 1 (Homo sapiens). The data set is described as §1.
Data set [10] deals with RAW264.7. Briefly: Antiinflammatory activity against mouse RAW264.7 cells assessed as inhibition of LPS-induced nitric oxide production after 24 hrs by Griess assay. In kind it is functional, cell-based. Particulars: RAW264.7, 24 h.
The subject of data set [11] is Mus musculus. As to the kind of experiment: Toxicity in BALB/c nude mouse xenografted with human A549 cells assessed as change in body weight at 5 mg/kg, ip administered as daily dose for 16 days relative to control. The data set is classed as organism-based. The following applies: in vivo, 384 h. (In general: Xenograft models place foreign cells or tissue in a host animal.)

Data set [12] concerns A549. Briefly: Antitumor activity against human A549 cells xenografted in BALB/c nude mouse assessed as tumor growth inhibition at 5 mg/kg, ip administered as daily dose for 16 days. In kind it is functional, organism-based.
Data set [13] concerns Mus musculus. Briefly: Toxicity in BALB/c nude mouse xenografted with human A549 cells at 5 mg/kg, ip administered as daily dose for 16 days relative to control. The following applies: in vivo, 384 h. In kind it is organism-based.

Usually inhibition stands for the share of the control response that was lost under treatment. For orientation: IC50 means the concentration needed to halve the response being measured. Regarding `CC1(C)C=Cc2c(ccc(-c3cc4ccc(O)cc4o3)c2O)O1`, the inhibition at 10 µM in the data set with SW480 amounted to 27.7%; in the data set on MCF7, 15.1%; in the data set with HepG2, 15.6%; in the data set on A549 [4], 14.4%; with RAW264.7 [5], 21.6%. Further, the results for the inhibition (in data set [1]; in data set [3]; in the data set with Homo sapiens) were 22.8%, 41.7% and 75.8%, respectively. The molecule further came in with a 50% inhibitory concentration (IC50) in data set [2] of 6.4 µM.
Take `CC1(C)C=Cc2c(ccc3c2OC[C@@H](c2ccc(O)cc2O)C3)O1` [GLABRIDIN]: the concentration for half-maximal inhibition (IC50) at Tyrosinase [6] came out at 0.09 µM. The inhibition at 10 µM in the data set with SW480 amounted to 19.8%; in the data set with MCF7, 8.8%; in the data set with HepG2 it was 12.1%; in the data set on A549 [4], 12.7%; in the data set on RAW264.7 [5], 19.8%. Besides, the results for the inhibition (in data set [1]; in data set [3]; in the data set on Homo sapiens) were 3.6%, 99.7% and 0%, respectively.
Take `CC1(C)C=Cc2cc3cc(-c4ccc(O)cc4O)c(=O)oc3cc2O1`: the inhibition at 10 µM in the data set on SW480 amounted to 18.1%; with MCF7, 24.5%; in the data set on HepG2 it was 14.4%; with A549 [4] it was 0%; with RAW264.7 [5], 21.2%. Also, the inhibition in data set [1] was 56.9%; in [3], 84%; in the data set with Homo sapiens it was 0%. The molecule further displayed a half-inhibitory concentration (IC50) against Tyrosinase [7] of 2.8 µM.
Regarding `CC1(C)C=Cc2cc(/C=C/C(=O)c3ccc(O)cc3O)ccc2O1`, the inhibition at 10 µM in the data set with SW480 amounted to 7.9%; in the data set on MCF7 it was 45.7%; in the data set on HepG2, 11.1%; with A549 [4], 2.6%; in the data set with RAW264.7 [5] it was 0%. For the same molecule, the inhibition in data set [1] was 56.5%; in data set [3] it was 4.4%; in the data set with Homo sapiens, 60.7%. Also, the IC50 in data set [2] is 5.5 µM.
For the molecule `CC(C)=CCc1cc(/C=C/C(=O)c2ccc(O)c(CC=C(C)C)c2O)ccc1O` [KANZONOL C], the IC50 in [8] fell in the range of 5 to 7.9 µM. Moreover, the inhibition entry in data set [9] was “Dose-dependent effect”; in data set [1] it was 75.8%; in data set [3] it was 0%; in the data set on Homo sapiens it was 0%. The inhibition at 10 µM with SW480 turned out to be 35.6%; with MCF7, 55.8%; with HepG2, 31.7%; in the data set on A549 [4], 58%; in the data set on RAW264.7 [5], 12.8%.
As to `CC1(C)C=Cc2c(O)ccc(C3=Cc4ccc(O)cc4OC3)c2O1` [GLABRENE], the inhibition at 10 µM was determined as 30.7% in the data set on SW480; 17.6% with MCF7; 25.9% in the data set on HepG2; 0% in the data set on A549 [4]; 57.5% in the data set with RAW264.7 [5]. Further, the inhibition turned out to be 7.1% in [1], 76.6% in data set [3] and 41.7% with Homo sapiens. The results for the concentration for half-maximal inhibition (IC50) with RAW264.7 [10] and against Tyrosinase [7] were 9.5 µM and 7.5 µM, respectively.
Regarding `COc1cc([C@@H]2c3cc4c(cc3[C@@H](O[C@@H]3O[C@@H]5CO[C@@H](C)O[C@H]5[C@H](O)[C@H]3O)[C@H]3COC(=O)[C@H]23)OCO4)cc(OC)c1O` [ETOPOSIDE], the Activity entry in the data set on Mus musculus [11] is “Toxic”; with Mus musculus [13] it was “Non-Toxic”. In addition, in the data set on A549 [12], the TGI entry was “Active”.
Regarding `CC(C)=CCc1cc(/C=C/C(=O)c2ccc3c(c2O)C=CC(C)(C)O3)ccc1O`, the half-inhibitory concentration (IC50) in [8] fell in the range of 5 to 7.9 µM. For the same molecule, the inhibition result in [9] is “Dose-dependent effect”; in [1] it was 84.5%; in data set [3] it was 0%; in the data set with Homo sapiens it was 3.4%. In addition, the inhibition at 10 µM in the data set on SW480 amounted to 4.9%; in the data set with MCF7, 15.6%; in the data set with HepG2 it was 10.6%; in the data set on A549 [4], 2%; with RAW264.7 [5], 7.2%.
Take `CC(C)=CCc1cc([C@@H]2CC(=O)c3ccc(O)c(CC=C(C)C)c3O2)ccc1O` [GLABROL]: the IC50 in [8] lay within 5 to 7.9 µM. Moreover, the inhibition result was “Dose-dependent effect” in [9], 65.1% in data set [1], 2.3% in [3] and 28.2% in the data set with Homo sapiens. For the same molecule, the inhibition at 10 µM in the data set on SW480 stood at 13.6%; in the data set with MCF7, 48%; in the data set with HepG2, 51.3%; with A549 [4] it was 3.2%; with RAW264.7 [5] it was 14.7%.
With `CC(C)=CCc1cc(/C=C/C(=O)c2ccc(O)cc2O)ccc1O` [LICOAGROCHALCONE A], the inhibition at 10 µM with SW480 is 18.3%; in the data set on MCF7 it was 35.4%; with HepG2, 33.9%; with A549 [4], 6.4%; with RAW264.7 [5], 31.6%. The inhibition in data set [1] is 17.2%; in [3], 22.6%; in the data set on Homo sapiens, 69%. This molecule also displayed a half-inhibitory concentration (IC50) in data set [2] of 6.2 µM.
As for `CC(C)=CCc1c(O)ccc2c1O[C@H](c1ccc3c(c1)C=CC(C)(C)O3)CC2=O`, the IC50 in data set [8] was 5 to 7.9 µM. The inhibition entry in data set [9] was “Dose-dependent effect”; in data set [1], 71%; in [3], 3.1%; in the data set with Homo sapiens, 44.7%. Besides, the inhibition at 10 µM with SW480 is 34.8%; with MCF7 it was 71.2%; in the data set with HepG2, 76.5%; in the data set on A549 [4] it was 0%; in the data set with RAW264.7 [5], 0%.
With `COc1ccc(C2COc3c(ccc(O)c3CC=C(C)C)C2=O)c(O)c1` (configuration not stated), the inhibition at 10 µM in the data set with SW480 was 27.8%; with MCF7, 8.7%; in the data set on HepG2, 50.3%; with A549 [4], 9.4%; in the data set with RAW264.7 [5], 18.1%. Moreover, the inhibition in data set [1] is 9.9%; in data set [3] it was 68.3%; in the data set on Homo sapiens, 0%. Besides, at Tyrosinase [7], the IC50 stood at 5.1 µM.
